Consider eleven compounds from ChEMBL document CHEMBL1201862, “PubChem BioAssay data set” (2004).

Among the test systems are UACC-257; SF-539; SK-MEL-5; MDA-MB-231; KM12; SNB-75; SK-OV-3; SR; ACHN; IGROV-1; MOLT-4; MDA-MB-435; COLO 205; HCT-116; UO-31; U-251; NCI/ADR-RES; HCT-15; Malme-3M; NCI-H522.
What all share (assay): DTP human tumour cell line panel, 48 h

Each structure is given as a SMILES string.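 Results reflect a 48-hour exposure of cells in 96-well plates to compound at five concentrations. Here, GI50 denotes the concentration required for 50% inhibition of growth.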 Activity calls are given as the source filed them. Cut-off read from the data, not from the text of the source: active = GI50 up to about 1.1 µM and inactive = higher.

In general, GI50 refers to the concentration giving 50% growth inhibition. On to `O=C(Nc1nnc(-c2c(Cl)c(Cl)c(Cl)c(Cl)c2-c2nc3cc(C(=O)c4ccccc4)ccc3[nH]2)o1)c1ccc(Cl)cc1`, for which the GI50 with UACC-257 is 36.8 µM (inactive); with SF-539, 22.4 µM (inactive); in the test with SK-MEL-5, 12.2 µM (inactive); with MDA-MB-231 it was 48.6 µM (inactive); in the test on KM12 it was 43.5 µM (inactive); with SNB-75, 47.8 µM (inactive). For the same compound, the GI50 with SK-OV-3 is 40.2 µM (inactive); in the test with SR it was 4.88 µM (inactive); in the test on ACHN, 30.7 µM (inactive); with IGROV-1 it was 29.2 µM (inactive); with MOLT-4 it was 13.6 µM (inactive); with MDA-MB-435, 6.31 µM (inactive). Besides, the GI50 with COLO 205 is 15.5 µM (inactive); in the test on HCT-116 it was 36.5 µM (inactive); with UO-31 it was 41.7 µM (inactive); in the test with U-251, 32 µM (inactive); in the test on NCI/ADR-RES it was 26.7 µM (inactive); in the test with HCT-15, 22.5 µM.
As to `CCn1ncc(Oc2c(Cl)cc(N)cc2Cl)c(Cl)c1=O`, the GI50 in the test with UACC-257 is 31.6 µM (inactive); in the test on SF-539, 31.6 µM (inactive); in the test on SK-MEL-5, 24 µM (inactive); with MDA-MB-231 it was 54.6 µM (inactive); in the test with KM12, 34.8 µM (inactive); in the test on SNB-75 it was 51.5 µM (inactive). Moreover, the GI50 is 31.3 µM (inactive) in the test with SK-OV-3; 21.5 µM (inactive) in the test with SR; 57.9 µM (inactive) in the test on ACHN; 42.3 µM (inactive) in the test on IGROV-1; 29.1 µM (inactive) in the test on MDA-MB-435; 22.7 µM (inactive) with COLO 205. Also, the GI50 in the test with HCT-116 is 30.4 µM (inactive); in the test on UO-31, 47.4 µM (inactive); in the test on U-251, 34.1 µM (inactive); in the test with Malme-3M it was 32.9 µM (inactive); in the test on NCI/ADR-RES, 31 µM (inactive); in the test with HCT-15, 27.8 µM.
With `CNNC1=NS(=O)(=O)c2cc(C#N)c(Cl)cc2S1`, the GI50 in the test with UACC-257, in the test on SF-539, in the test with SK-MEL-5, with MDA-MB-231, in the test with KM12 and in the test with SNB-75 was > 10 µM (inactive) throughout. The GI50 with SK-OV-3, with ACHN, with IGROV-1, in the test on MOLT-4, in the test with MDA-MB-435 and in the test on COLO 205 was > 10 µM (inactive) each time. The GI50 in the test with HCT-116 was > 10 µM (inactive); in the test with UO-31, 1.68 µM (inactive); with U-251, > 10 µM (inactive); in the test with Malme-3M, > 10 µM (inactive); in the test with NCI/ADR-RES, > 10 µM (inactive); in the test on NCI-H522, > 10 µM (inactive). Also, in the test on HCT-15, the GI50 was greater than 10 µM.
With `CC(OC(C)(C)C)[C@H](NC(=O)OCc1ccccc1)C(=O)NC(OCc1ccccc1)[C@H]1COC(C)(C)O1` (some centres undefined), the GI50 in the test on UACC-257, in the test with SF-539, in the test on SK-MEL-5, with MDA-MB-231, in the test with KM12 and in the test on SNB-75 was > 10 µM (inactive) in each case. In addition, the GI50 in the test with SK-OV-3, in the test with ACHN, in the test with IGROV-1, in the test with MOLT-4, in the test with MDA-MB-435 and with COLO 205 was > 10 µM (inactive) throughout. In addition, the GI50 in the test with HCT-116 is 50.7 µM (inactive); in the test on UO-31, > 10 µM (inactive); in the test with U-251, > 10 µM (inactive); in the test with Malme-3M, > 10 µM (inactive); in the test with NCI/ADR-RES, > 10 µM (inactive); in the test with NCI-H522, > 10 µM (inactive). Further, the GI50 in the test on HCT-15 was greater than 10 µM.
Regarding `O=C(O)C(SC1=NC(=O)C2(NN1)c1ccccc1-c1ccccc12)SC1=NC(=O)C2(NN1)c1ccccc1-c1ccccc12`, the GI50 with UACC-257 is > 10 µM (inactive); in the test on SF-539, > 10 µM (inactive); in the test on SK-MEL-5, > 10 µM (inactive); with MDA-MB-231, > 10 µM (inactive); in the test with KM12 it was > 10 µM (inactive); in the test on SNB-75, 2.74 µM (inactive). In addition, the GI50 is > 10 µM (inactive) in the test on SK-OV-3; > 10 µM (inactive) in the test with ACHN; > 10 µM (inactive) with IGROV-1; 4.09 µM (inactive) with MOLT-4; > 10 µM (inactive) in the test with MDA-MB-435; > 10 µM (inactive) in the test on COLO 205. Also, the GI50 in the test with HCT-116, in the test on UO-31, in the test on U-251, in the test with Malme-3M, in the test with NCI/ADR-RES and with NCI-H522 was > 10 µM (inactive) in each case. The 50% growth inhibitory concentration (GI50) with HCT-15 is greater than 10 µM.
Take `O=C1C=C(NCCOCCO)C(=O)c2c(O)ccc(O)c21`: the GI50 in the test on UACC-257 was 20.8 µM (inactive); in the test with SF-539 it was 24 µM (inactive); in the test with SK-MEL-5, 13.2 µM (inactive); with MDA-MB-231, 33.2 µM (inactive); with KM12 it was 30.1 µM (inactive); with SNB-75 it was 61.7 µM (inactive). Also, the GI50 is 33.4 µM (inactive) in the test with SK-OV-3; 27.2 µM (inactive) in the test with ACHN; 36.7 µM (inactive) with IGROV-1; 26.1 µM (inactive) in the test with MOLT-4; 18.2 µM (inactive) with MDA-MB-435; 17.1 µM (inactive) in the test with COLO 205. Further, the GI50 was 22.5 µM (inactive) in the test with HCT-116; 59.8 µM (inactive) in the test on UO-31; 30.5 µM (inactive) in the test with U-251; 11.9 µM (inactive) in the test on Malme-3M; 23.1 µM (inactive) in the test on NCI/ADR-RES; 24 µM (inactive) in the test on NCI-H522. In addition, growth with HCT-15 was halved (GI50) at 22.9 µM.
For the compound `COC(=O)/C(=N\N)C(C(=O)C(=O)Nc1cc(Cl)ccc1Cl)c1nc2ccc([N+](=O)[O-])cc2nc1O` (centres undefined), the GI50 with UACC-257, in the test on SF-539, with SK-MEL-5, with MDA-MB-231, with KM12 and in the test on SNB-75 was > 100 µM (inactive) each time. The GI50 in the test on SK-OV-3 is > 100 µM (inactive); in the test with ACHN, 50.9 µM (inactive); with IGROV-1, 50.1 µM (inactive); in the test with MOLT-4 it was > 100 µM (inactive); in the test on MDA-MB-435, > 100 µM (inactive); with HCT-116, > 100 µM (inactive). Moreover, the GI50 in the test with UO-31 was 29.6 µM (inactive); in the test on U-251, > 100 µM (inactive); in the test with Malme-3M, > 100 µM (inactive); in the test on NCI/ADR-RES it was > 100 µM (inactive); with NCI-H522 it was > 100 µM (inactive); in the test with HCT-15, 82.6 µM.
For the compound `Fc1ccc(-c2sc(-c3cccs3)cc2Cc2cccs2)cc1`, the GI50 in the test on UACC-257, in the test with SF-539, in the test with SK-MEL-5, in the test on MDA-MB-231, in the test on KM12 and in the test on SNB-75 was > 100 µM (inactive) each time. In addition, the GI50 was > 100 µM (inactive) in the test on SK-OV-3; > 100 µM (inactive) in the test with ACHN; > 100 µM (inactive) in the test on IGROV-1; 31.1 µM (inactive) in the test with MOLT-4; > 100 µM (inactive) with MDA-MB-435; > 100 µM (inactive) with COLO 205. The GI50 in the test on HCT-116, in the test with UO-31, in the test on U-251, in the test on Malme-3M, in the test on NCI/ADR-RES and with NCI-H522 was > 100 µM (inactive) each time. For the same compound, the concentration for 50% growth inhibition (GI50) with HCT-15 is greater than 100 µM.
As for `C=CCn1c(=O)c2ccccc2[n+]2c(C)c(C(=O)OCC)sc12`, the GI50 in the test on UACC-257, with SF-539, with SK-MEL-5, in the test with MDA-MB-231, in the test with KM12 and in the test with SK-OV-3 was > 100 µM (inactive) throughout. Further, the GI50 in the test on SR, in the test with ACHN, in the test with IGROV-1, in the test with MOLT-4, in the test with MDA-MB-435 and in the test on COLO 205 was > 100 µM (inactive) throughout. Moreover, the GI50 in the test on HCT-116 is > 100 µM (inactive); in the test with UO-31 it was > 100 µM (inactive); with U-251, 90.2 µM (inactive); in the test with NCI/ADR-RES it was > 100 µM (inactive); in the test with NCI-H522, > 100 µM (inactive); with HCT-15, greater than 100 µM.
For the compound `Nc1nc2c(ncn2C2C=CC(COS(N)(=O)=O)C2)c(=O)[nH]1` (centres undefined), the GI50 in the test on UACC-257, in the test on SF-539, with SK-MEL-5, in the test on MDA-MB-231, in the test with KM12 and with SNB-75 was > 100 µM (inactive) each time. Also, the GI50 in the test on SK-OV-3, in the test with SR, with ACHN, in the test on IGROV-1, with MOLT-4 and in the test with MDA-MB-435 was > 100 µM (inactive) throughout. Moreover, the GI50 in the test with COLO 205, with HCT-116, in the test on UO-31, in the test on U-251, in the test with Malme-3M and in the test on NCI/ADR-RES was > 100 µM (inactive) each time. Further, in the test on HCT-15, the concentration for 50% growth inhibition (GI50) is greater than 100 µM.
Consider `C=C1C(=O)O[C@H]2C(=O)[C@H](C)CCC/C(C)=C/CC[C@@]3(C)O[C@@H]3C[C@@H]12`, for which the GI50 in the test on UACC-257 is 2.99 µM (inactive); with SF-539, 2.39 µM (inactive); in the test on SK-MEL-5, 7.59 µM (inactive); in the test with MDA-MB-231, 10.7 µM (inactive); in the test on KM12, 4.3 µM (inactive); with SK-OV-3, 16.4 µM (inactive). In addition, the GI50 was 2.45 µM (inactive) in the test with SR; 1.34 µM (inactive) in the test with ACHN; 2.76 µM (inactive) in the test with IGROV-1; 1.61 µM (inactive) in the test on MOLT-4; 1.98 µM (inactive) with MDA-MB-435; 1.58 µM (inactive) with COLO 205. For the same compound, the GI50 in the test on HCT-116 was 1.05 µM (active); in the test with UO-31, 1.62 µM (inactive); in the test with U-251 it was 2.67 µM (inactive); with NCI/ADR-RES, 14 µM (inactive); in the test on NCI-H522, 1.67 µM (inactive); in the test with HCT-15 it was 1.56 µM.
